Where a name gives a salt, the structure may show the parent alone. Read-outs that look alike come from different tables or passages of the source.
Legend:
mice = assay: Dark Avoidance Assay (SDDA), reversal of scopolamine induced memory deficit; format: in vivo; settings: s.c., retest after 24 hours
Protocol: This utility can also be ascertained by determining the ability of these compounds to restore cholinergically deficient memory in the Dark Avoidance Assay. In this assay mice are tested for their ability to remember an unpleasant stimulus for a period of 24 hours. A mouse is placed in a chamber that contains a dark compartment; a strong incandescent light drives it to the dark compartment, where an electric shock is administered through metal plates on the floor. The animal is removed from the testing apparatus and tested again, 24 hours later, for the ability to remember the electric shock.
If scopolamine, an anticholinergic that is known to cause memory impairment, is administered before an animal's initial exposure to the test chamber, the animal re-enters the dark compartment shortly after being placed in the test chamber 24 hours later. This effect of scopolamine is blocked by an active test compounds, resulting in a greater interval before re-entry into the dark compartment.
The test results are expressed as the percent of a group of animals in which the effect of scopolamine is blocked, as manifested by an increased interval between being placed in the test chamber and reentering the dark compartment. Results of Dark Avoidance Assay for some of the compounds of this invention are presented in Table II along with a result for a reference compounds.

acetylcholinesterase = acetylcholinesterase (Homo sapiens, UniProt P22303); assay: Acetylcholinesterase Inhibition Assay (photometric method of Ellman et al.); format: biochemical
Chain of acetylcholinesterase (P22303 32-614): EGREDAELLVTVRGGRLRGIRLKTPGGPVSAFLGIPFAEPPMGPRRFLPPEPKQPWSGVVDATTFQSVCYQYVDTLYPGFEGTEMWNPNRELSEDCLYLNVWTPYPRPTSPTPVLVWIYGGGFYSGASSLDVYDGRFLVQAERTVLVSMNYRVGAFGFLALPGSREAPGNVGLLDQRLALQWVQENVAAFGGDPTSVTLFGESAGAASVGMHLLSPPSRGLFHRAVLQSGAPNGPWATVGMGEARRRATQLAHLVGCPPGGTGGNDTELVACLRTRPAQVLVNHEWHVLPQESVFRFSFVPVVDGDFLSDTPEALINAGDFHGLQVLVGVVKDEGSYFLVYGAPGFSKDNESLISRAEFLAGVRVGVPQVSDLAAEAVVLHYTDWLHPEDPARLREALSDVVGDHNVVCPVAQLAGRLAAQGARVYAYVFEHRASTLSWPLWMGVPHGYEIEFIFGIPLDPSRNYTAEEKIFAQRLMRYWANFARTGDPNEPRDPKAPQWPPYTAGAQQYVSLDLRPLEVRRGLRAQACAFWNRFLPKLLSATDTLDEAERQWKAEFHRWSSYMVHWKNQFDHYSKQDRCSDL

Structure (SMILES) | Percent of Animals with Scopolamine Induced Memory Deficit Reversal (mice; 0.10 mg/kg) | also measured
Nc1c2c(nc3ccccc13)CCCC2 [Tacrine, reference compound] |  | Percent of Animals with Scopolamine Induced Memory Deficit Reversal (mice; 0.31 mg/kg): 33% of Animals
CC(C)OC(=O)Oc1ccc2c3c1O[C@H]1C[C@@H](O)C=C[C@@]31CCN(C)C2 [Example 9, 6-O-Demethyl-6-O-(prop-2-yl-oxycarbonyl)galanthamine hydrochloride] | 33% of Animals | 
CC(C)OC(=O)OC1C=CC23CCN(C)Cc4ccc(OC(=O)C(C)(C)C)c(c42)OC3C1.Cl.O (stereo not drawn) [6-O-Demethyl-3-O-(2-propoxy-carbonyl)-6-O-(t-butylcarbonyl)-galanthamine hydrochloride hydrate] | 53% of Animals | 
CC(C)OC(=O)Oc1ccc2c3c1O[C@H]1C[C@@H](O)C=C[C@@]31CCN(C)C2 [6-O-Demethyl-6-O-(2-propoxycarbonyl)galanthamine] |  | IC50 (acetylcholinesterase): 1.61 µM
CN1CC[C@@]23C=C[C@H](O)C[C@@H]2Oc2c(OC(=O)C(C)(C)C)ccc(c23)C1 [Example 3, 6-O-Demethyl-6-O-(t-butylcarbonyl)galanthamine hydrochloride] |  | IC50 (acetylcholinesterase; photometric method of Ellman et al., read-out: IC50 CHE I): 2.69 µM
CN1CC[C@@]23C=C[C@H](O)C[C@@H]2Oc2c(OC(=O)C(C)(C)C)ccc(c23)C1 [6-O-Demethyl-6-O-(trimethylacetyl)-galanthamine] | 53% of Animals | 
